Results published in patent US20200131156A1, “ARYLSULFONYLPYROLECARBOXAMIDE DERIVATIVES AS Kv3 POTASSIUM CHANNEL ACTIVATORS” (H. Lundbeck A/S, priority 2018, published 2020).

Biological target: T1, hKv3.1b (Homo sapiens, UniProt P48547)
T1 construct: expressed in transfected cells
T1 sequence (P48547 1-585 isoform P48547-2): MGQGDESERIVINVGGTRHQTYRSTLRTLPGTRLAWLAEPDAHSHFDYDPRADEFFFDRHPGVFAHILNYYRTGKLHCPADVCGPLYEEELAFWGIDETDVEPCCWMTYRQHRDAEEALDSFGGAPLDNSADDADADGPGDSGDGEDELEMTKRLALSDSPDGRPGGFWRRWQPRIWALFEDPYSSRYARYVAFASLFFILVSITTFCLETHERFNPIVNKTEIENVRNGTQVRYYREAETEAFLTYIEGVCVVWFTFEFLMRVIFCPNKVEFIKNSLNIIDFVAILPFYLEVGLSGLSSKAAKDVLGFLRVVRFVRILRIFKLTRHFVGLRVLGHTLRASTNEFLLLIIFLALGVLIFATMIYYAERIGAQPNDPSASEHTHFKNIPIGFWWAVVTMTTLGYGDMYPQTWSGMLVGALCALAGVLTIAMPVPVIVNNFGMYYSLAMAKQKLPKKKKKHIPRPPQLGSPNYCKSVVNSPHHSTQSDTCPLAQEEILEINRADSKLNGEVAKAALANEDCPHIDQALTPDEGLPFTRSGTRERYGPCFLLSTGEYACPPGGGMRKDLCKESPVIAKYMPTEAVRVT
Experiment: Automated patch clamp (QPatch-16x) on HEK-293 cells stably expressing hKv3.1b
Assay type: cell-based
Settings: for ECdelta5 mV: concentration needed to shift the activation threshold 5 mV; for Threshold Shift: maximum absolute hyperpolarizing shift of activation threshold at tested concentrations 0.37-30 μM
Experimental: HEK-293 cells stably expressing hKv3.1b were used for the experiments. Cells were cultured in DMEM medium supplemented with 10% Fetal Bovine Serum, 100 ug/mL Geneticidin and 100 u/mL Penicillin/Streptomycin (all from Gibco). Cells were grown to 80-90% confluency at 37° C. and 5% CO2. On the day of the experiment the cells were detached from the tissue culture flasks by Detachin, resuspended in serum free medium containing 25 mM HEPES and transferred to the cell hotel of the QPatch. The cells were used for experiments 0-5 hours after detachment.
Patch-clamp recordings were performed using the automated recording system QPatch-16x (Sophion Bioscience, Denmark). Cells were centrifuged, SFM removed and the cells were resuspended in extracellular buffer containing (in mM): 145 NaCl, 4 KCl, 1 MgCl2, 2 CaCl2, 10 HEPES and 10 glucose (added fresh on the day of experiment); pH 7.4 adjusted with NaOH, 305 mOsm adjusted with sucrose.
Single cell whole-cell recordings were carried out using an intracellular solution containing (in mM): 120 KCl, 32.25/10 KOH/EGTA, 5.374 CaCl2, 1.75 MgCl2, 10 HEPES, 4 Na2ATP (added fresh on the day), pH 7.2 adjusted with KOH, […] adjusted with sucrose. Cell membrane potentials were held at −80 mV and currents were evoked by voltage steps (200 ms duration) from −70 mV to +10 mV (in 10 mV increments). Vehicle (0.33% DMSO) or increasing concentration of compound (I) were applied and the voltage protocol was run 3 times (resulting in 3 min cpd incubation time). Five increasing concentrations of compound (I) were applied to each cell.
Leak subtraction protocol was applied at −33% of the sweep amplitude, and serial resistance values were constantly monitored.
Any cell where serial resistance exceeded 25 MOhm, membrane resistance less than 200 MOhm or current size at −10 mV less than 200 pA was eliminated from the subsequent analysis.
Data analysis was performed using Sophion's QPatch assay software in combination with Microsoft Excel™ (Redmond, Wash., USA). Current voltage relationships were plotted from the peak current at the individual voltage steps normalized to the vehicle addition at 10 mV. The voltage threshold for channel activation was defined as 5% activation of the peak current at 10 mV in presence of vehicle. The activity of the compounds was described as the ability to shift this current voltage relationship to more hyperpolarized potentials and is given as the maximum absolute shift possible at the tested concentrations (0.37, 1.11, 3.33, 10, 30 μM). Concentration response curves were plotted from the threshold shift at the individual concentrations and were fitted excel fit model 205 sigmoidal dose-response model (fit=A+((B−A)/1+((C/x)^D)))), where A is the minimum value, B the maximum value, C the EC50 value and D the slope of the curve. The concentration needed to shift the threshold 5 mV was readout from this curve (ECdelta5 mV).

SMILES	ECdelta5 mV [nM]	Threshold Shift [mV]
Cc1ccc(S(=O)(=O)n2ccc(C(=O)NCc3cnn(C)c3)c2)cc1 [Compound 37, N-[(1-methylpyrazol-4-yl)methyl]-1-(p-tolylsulfonyl) pyrrole-3-carboxamide]	1800	22
Cc1ccc(S(=O)(=O)n2ccc(C(=O)NCc3cnc(C)o3)c2)cc1 [Compound 38, N-[(2-methyloxazol-5-yl)methyl]-1-(p-tolylsulfonyl)pyrrole-3-carboxamide]	4600	13
Cc1ccc(S(=O)(=O)n2ccc(C(=O)NCc3ncc(C)s3)c2)cc1 [Compound 39, N-[(5-methylthiazol-2-yl)methyl]-1-(p-tolylsulfonyl)pyrrole-3-carboxamide]	1600	17
Cc1ccc(S(=O)(=O)n2ccc(C(=O)NCc3cn(C)cn3)c2)cc1 [Compound 40, N-[(1-methylimidazol-4-yl)methyl]-1-(p-tolylsulfonyl)pyrrole-3-carboxamide]	2000	22
Cc1ccc(S(=O)(=O)n2ccc(C(=O)NCc3ncn(C)n3)c2)cc1 [Compound 42, N-[(1-methyl-1,2,4-triazol-3-yl)methyl]-1-(p-tolylsulfonyl)pyrrole-3-carboxamide]	1700	25
Cc1ccc(S(=O)(=O)n2ccc(C(=O)NCc3coc(C)n3)c2)cc1 [Compound 47, 1-(4-methylbenzene-1-sulfonyl)-N-[(2-methyl-1,3-oxazol-4-yl)methyl]-1H-pyrrole-3-carboxamide]	2300	12
Cc1ccc(S(=O)(=O)n2ccc(C(=O)NCc3cnco3)c2)cc1 [Compound 50, 1-(4-methylbenzene-1-sulfonyl)-N-[(1,3-oxazol-5-yl)methyl]-1H-pyrrole-3-carboxamide]	3300	13
Cc1ccc(S(=O)(=O)n2ccc(C(=O)NCc3nccs3)c2)cc1 [Compound 51, 1-(4-methylbenzene-1-sulfonyl)-N-[(1,3-thiazol-2-yl)methyl]-1H-pyrrole-3-carboxamide]	2400	14
Cc1ccc(S(=O)(=O)n2ccc(C(=O)NCc3ccon3)c2)cc1 [Compound 52, 1-(4-methylbenzene-1-sulfonyl)-N-[(1,2-oxazol-3-yl)methyl]-1H-pyrrole-3-carboxamide]	2500	13
Cc1ccc(S(=O)(=O)n2ccc(C(=O)NCc3cocn3)c2)cc1 [Compound 54, 1-(4-methylbenzene-1-sulfonyl)-N-[(1,3-oxazol-4-yl)methyl]-1H-pyrrole-3-carboxamide]	2000	15
Cc1ccc(S(=O)(=O)n2ccc(C(=O)NCc3nncs3)c2)cc1 [Compound 56, 1-(4-methylbenzene-1-sulfonyl)-N-[(1,3,4-thiadiazol-2-yl)methyl]-1H-pyrrole-3-carboxamide]	6800	14
Cc1ccc(S(=O)(=O)n2ccc(C(=O)NCc3ncon3)c2)cc1 [Compound 57, 1-(4-methylbenzene-1-sulfonyl)-N-[(1,2,4-oxadiazol-3-yl)methyl]-1H-pyrrole-3-carboxamide]	3600	14

Continued, values first:

ECdelta5 mV [nM]	Threshold Shift [mV]	SMILES
2200	15	Cc1ccc(S(=O)(=O)n2ccc(C(=O)NCc3ncc(C)o3)c2)cc1 [Compound 33, N-[(5-methyloxazol-2-yl)methyl]-1-(p-tolylsulfonyl)pyrrole-3-carboxamide]
1100	18	Cc1ccc(S(=O)(=O)n2ccc(C(=O)NCc3nc(C)cs3)c2)cc1 [Compound 34, N-[(4-methylthiazol-2-yl)methyl]-1-(p-tolylsulfonyl)pyrrole-3-carboxamide]
1100	21	Cc1ccc(S(=O)(=O)n2ccc(C(=O)NCc3cc(C)no3)c2)cc1 [Compound 35, N-[(3-methylisoxazol-5-yl)methyl]-1-(p-tolylsulfonyl) pyrrole-3-carboxamide]
810	27	Cc1ccc(S(=O)(=O)n2ccc(C(=O)NCc3ccn(C)n3)c2)cc1 [Compound 36, N-[(1-methylpyrazol-3-yl)methyl]-1-(p-tolylsulfonyl) pyrrole-3-carboxamide]
3100	17	Cc1ccc(S(=O)(=O)n2ccc(C(=O)NCc3cn(C)nn3)c2)cc1 [Compound 41, N-[(1-methyltriazol-4-yl)methyl]-1-(p-tolylsulfonyl)pyrrole-3-carboxamide]
1700	23	Cc1ccc(S(=O)(=O)n2ccc(C(=O)NCc3nc(C)no3)c2)cc1 [Compound 43, N-[(3-methyl-1,2,4-oxadiazol-5-yl)methyl]-1-(p-tolylsulfonyl)pyrrole-3-carboxamide]
2300	18	Cc1cnc(CNC(=O)c2ccn(S(=O)(=O)c3ccccc3)c2)cn1 [Compound 48, 1-(benzenesulfonyl)-N-[(5-methylpyrazin-2-yl)methyl]-1H-pyrrole-3-carboxamide]
2100	13	Cc1ccc(S(=O)(=O)n2ccc(C(=O)NCc3cscn3)c2)cc1 [Compound 49, 1-(4-methylbenzene-1-sulfonyl)-N-[(1,3-thiazol-4-yl)methyl]-1H-pyrrole-3-carboxamide]
2300	15	Cc1ccc(S(=O)(=O)n2ccc(C(=O)NCc3ccno3)c2)cc1 [Compound 53, 1-(4-methylbenzene-1-sulfonyl)-N-[(1,2-oxazol-5-yl)methyl]-1H-pyrrole-3-carboxamide]
1500	15	Cc1ccc(S(=O)(=O)n2ccc(C(=O)NCc3cnsc3)c2)cc1 [Compound 55, 1-(4-methylbenzene-1-sulfonyl)-N-[(1,2-thiazol-4-yl)methyl]-1H-pyrrole-3-carboxamide]
2200	22	Cc1ccc(S(=O)(=O)n2ccc(C(=O)NCc3cncnc3)c2)cc1 [Compound 58, 1-(4-methylbenzene-1-sulfonyl)-N-[(pyrimidin-5-yl)methyl]-1H-pyrrole-3-carboxamide]
2000	14	O=C(NCc1cnccn1)c1ccn(S(=O)(=O)c2ccccc2F)c1 [Compound 59, 1-(2-fluorobenzene-1-sulfonyl)-N-[(pyrazin-2-yl)methyl]-1H-pyrrole-3-carboxamide]
2200	16	Cc1cccc(S(=O)(=O)n2ccc(C(=O)NCc3ccn(C)n3)c2)c1 [Compound 60, 1-(3-methylbenzene-1-sulfonyl)-N-[(1-methyl-1H-pyrazol-3-yl)methyl]-1H-pyrrole-3-carboxamide]
5900	12	Cc1cccc(S(=O)(=O)n2ccc(C(=O)NCc3nc(C)no3)c2)c1 [Compound 61, 1-(3-methylbenzene-1-sulfonyl)-N-[(3-methyl-1,2,4-oxadiazol-5-yl)methyl]-1H-pyrrole-3-carboxamide]
